Common to all, as to format: physicochemical
A short description of series [1]: Solubility of triclosan in silicone oil.
Series [2] can be described thus: Release of QSIs and DMABI from SLIPS in PBS at 37° C. (UV/vis). How it is done: Small Molecule Loading, Oil Infusion, and Characterization of Release. […] Immediately prior to use, loaded films were infused with silicone oil (for melting point and boiling point apparatuses; Sigma-Aldrich) by placing a 2.25 μL droplet of oil on each side and allowing the oil to spread over the entire surface. Excess oil was removed from the surface using tissue paper. […] At designated time points, substrates were removed from the incubation buffer and placed in fresh buffer before returning to the incubator. The release of the loaded agents into the incubation buffer was characterized using a UV/vis spectrophotometer.
Characterization of the release of QSIs and biofilm inhibitors from SLIPS.

Series [3] is described as follows: Water droplet sliding velocity on compound-loaded SLIPS. The following applies: 10 μL water droplets, SLIPS loaded with the compound, tilt angle 10°; mean and standard error of six replicates. An excerpt:
All QSI-loaded SLIPS used in this study contained 240 nmol of compound per substrate and all DMABI-loaded SLIPS contained 300 nmol of compound.

As for `Oc1cc(Cl)ccc1Oc1ccc(Cl)cc1Cl` [Triclosan, 5-chloro-2-(2,4-dichlorophenoxy)phenol], in series [1], the “solubility in silicone oil” value is given as “soluble in silicone oil”.

As for `Cc1cc2nc(N)[nH]c2cc1C` [DMABI, Dimethyl-2-aminobenzamidazole], in series [2] (after the first 24 hours), the loaded compound released entry is “approximately 40%”. In addition, the additional compound released entry in series [2] (over the next 150 hours) is “approximately 40%”. In addition, the “Slide Velocity” value in series [3] is 7.4 ± 0.2 mm/s.
